Measured values as given in US20040063651A1, “Remedies for hepatitis c” (priority 2000, published 2004).

Experiments:
[1] = tested on: proximate viruses of the hepatitis C virus (viruses having (+)-chain single stranded RNA in their genome); settings: cited from earlier work
Hepatitis C Virus (HCV) = assay: Inhibitory effect on HCV proliferation in infected MT-2C cells (nested RT-PCR detection limit dilution of HCV genome); type: cell-based; settings: for detection of HCV genome in diluted RT product: FIG. 2, negative control detected up to 10-fold or 30-fold dilution
Protocol: Inhibitory effect on HCV proliferation of the compounds of Synthetic Example 1, Synthetic Example 2, Synthetic Example 10 and Synthetic Example 11 described above was measured by the following process.
Measurement of anti HCV proliferation inhibitory activity was performed in accordance with a known process (Kato, N. et. al., Biochem. Biophs. Res. Commun. 206, 863-869, 1995).
(§1) MT-2C cells that are cells derived from human T cells (Kato, N. et. al., Biochem. Biophs. Res. Commun. 206, 863-869, 1995) were cultured in an RPMI 1640 medium (Gibco-BRL 11875-101) supplemented with FBS (Foetal Bovine Serum, Gibco-BRL10082-147) at 10%. Thus cultured MT-2C cells (1×10^6 cells) were suspended in 200 uL of an F-12 medium (Gibco-BRL 11059-029) added with EDTA (ethylenediamine tetraacetic acid) to yield final concentration of 5 mM. Thereto was added 20 μL of a serum derived from a hepatitis C patient, followed by infection at 37° C. for 2 hours. After the infection, the cells were washed three times with 1 mL of PBS (Phosphate buffered saline), suspended in 6 mL of an RPMI medium added with FBS at 10%. The suspended cells were seeded on a 48 well culture plate, and incubated in a CO2 incubator at 32° C. for 3 days.
Thereto was added the compound of Synthetic Example 1, Synthetic Example 2, Synthetic Example 10 or Synthetic Example 11 dissolved in DMSO (Dimethyl Sulfoxide) in an amount of thousandths of the medium, and the mixture was cultured for 3 days. A medium adjusted to have the same concentration of the identical compound was added to each well in a two-fold volume, followed by an additional culture for 4 days. Cells were harvested for each of the samples, and total cellular RNA was purified. For the RNA purification, ISOGEN (NIPPON GENE, 311-02501) was used. In order to quantitatively determine an HCV RNA genome in the purified RNA, the following operation was carried out.
Using 1 μg of the purified RNA, a reverse transcription reaction was performed in a total volume of 20 uL at 37° C. for 1 hour. Subsequently, an inactivation treatment of the reverse transcriptase was carried out at 100° C. for 30 minutes. SuperScript™ II (Gibco BRL 18064-014) was used as a reverse. transcriptase, and an oligoDNA (Gibco BRL) having 20 bases which are complementary to the sequence of base position 317 through base position 336 of HCV-J strain (Kato, N. et. al. Proc. Natl. Acad. Sci. USA 87, 9524-9528, 1990) was used as a primer.
Product of the reverse transcription reaction was diluted to 3-fold, 10-fold, 30-fold and 100-fold with sterilized and distilled water. First PCR (Polymerase Chain Reaction), (34 cycles of: at 94° C. for 1 minute, at 58° C. for 45 seconds and at 72° C. for 1 minute; and 1 cycle of: at 94° C. for 1 minute, at 58° C. for 1 minute and 40 seconds and at 72° C. for 8 minutes) was performed in a total volume of 50 μL using 3 μL of the diluted product of the reverse transcription reaction. EX-Taq (TAKARA RR001A) was used as a DNA synthetase, while an oligoDNA (GibcoBRL) having 20 bases which correspond to the sequence of base position 71 through base position 90 and an oligoDNA (Gibco BRL) having 20 bases which are complementary to the sequence of base position 317 through base position 336 of HCV-J strain were used as primers. […]

MT-2C cells = assay: Yield of total cellular RNA of HCV-infected MT-2C cells (cell injury); type: cell-based, human; settings: 0.1-10 μM compound, 7 days culture
Protocol: as §1, with “days. Thereto was added the compound of Synthetic Example 1, Synthetic Example 2, Synthetic Example 10 or Synthetic Example 11 dissolved in DMSO (Dimethyl Sulfoxide) in an amount of thousandths of the medium, and the mixture was cultured for 3 days. A medium adjusted to have the same concentration of the identical compound was added to each well in a two-fold volume, followed by an additional culture for 4 days. Cells were harvested for each of the samples, and total cellular RNA was purified. For the RNA purification, ISOGEN (NIPPON GENE, 311-02501) was used. In order to quantitatively determine an HCV RNA genome in the purified RNA, the following operation was carried out.” for “days.”

HCV RNA polymerase = molecular target: T1, HCV RNA polymerase (Hepatitis C virus genotype 1b, UniProt Q9WMX2); assay: Inhibitory effect on HCV RNA polymerase activity ([α-32P]UTP incorporation, poly(A)/oligo(U)); type: biochemical; settings: 10 uM UTP, 30° C. for 30 minutes; read-out: 50% inhibitory concentration for HCV RNA polymerase
T1 construct: Expression and purification of HCV RNA polymerase were performed in accordance with known processes; made in house
T1 sequence (Q9WMX2 2420-3010): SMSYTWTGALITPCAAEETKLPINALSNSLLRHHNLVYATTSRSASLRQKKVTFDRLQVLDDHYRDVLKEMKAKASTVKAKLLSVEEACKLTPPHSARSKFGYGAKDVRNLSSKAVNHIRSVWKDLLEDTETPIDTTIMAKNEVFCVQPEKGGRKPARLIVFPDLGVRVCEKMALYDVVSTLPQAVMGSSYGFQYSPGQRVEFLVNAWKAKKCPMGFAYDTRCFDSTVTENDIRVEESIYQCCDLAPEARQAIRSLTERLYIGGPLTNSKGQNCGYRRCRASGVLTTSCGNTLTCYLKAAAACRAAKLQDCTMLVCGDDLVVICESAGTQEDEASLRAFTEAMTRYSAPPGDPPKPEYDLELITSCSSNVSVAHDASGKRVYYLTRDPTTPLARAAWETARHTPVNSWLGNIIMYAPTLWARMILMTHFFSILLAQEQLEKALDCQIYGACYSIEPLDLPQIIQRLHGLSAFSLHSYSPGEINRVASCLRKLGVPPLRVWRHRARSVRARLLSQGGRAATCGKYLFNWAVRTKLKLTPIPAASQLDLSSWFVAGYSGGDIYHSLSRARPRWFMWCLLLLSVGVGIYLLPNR
Protocol: Inhibitory effect on an HCV RNA polymerase activity of the compounds of Synthetic Example 12, Synthetic Example 13, Synthetic Example 19, Synthetic Example 21 and Synthetic Example 22 described above was measured by the following process.
Expression and purification of HCV RNA polymerase were performed in accordance with known processes (V. Lohman et al., VIROLOGY, 249, 108-118, 1998).
The purified HCV RNA polymerase in an amount of 200 ng was mixed with 100 ng/mL poly(A)RNA (polyadenine RNA) as a template RNA and 25 ng/mL 15-mer oligo(U)RNA (oligouridine having 15 bases, TAKARA Shuzo) as a primer RNA in 50 μL of an aqueous solution containing 20 mM Tris-Cl (pH 7.5), 5 MM MgCl2, 25 mM KCl, 10 uM UTP (Uridine-triphosphate), 0.25 Ci/mL [α-^32P]UTP (Amersham, PB10203). Then, thereto was added the compound of Synthetic Example 12, Synthetic Example 13, Synthetic Example 19, Synthetic Example 21 or Synthetic Example 22, followed by an RNA synthetic reaction at 30° C. for 30 minutes.
After completing the reaction, RNA in the solution was absorbed on DE81 paper (Whattman). Then, [α-^32P]UTP which was not incorporated into the synthesized RNA was washed out with 0.5 M phosphate buffer, and the quantity of [α-^32P]UTP which was incorporated into the synthesized RNA on the DE81 paper was determined on a liquid scintillation counter.
Inhibitory potency of the compounds of Synthetic Example 12, Synthetic Example 13, Synthetic Example 19, Synthetic Example 21 and Synthetic Example 22 was represented by 50% inhibitory concentration when the negative control without HCV RNA polymerase was assumed as 0% while the positive control without the compound was assumed as 100%.

hepatitis C = settings: medical treatment of hepatitis C; cited from earlier work

O=c1ccn([C@@H]2O[C@H](CO)[C@@H](F)[C@H]2O)c(=O)[nH]1 [Synthetic Example 1, 3′-deoxy-3′-fluorouridine]
inhibitory activity on proximate viruses of the hepatitis C virus [1]: only a low inhibitory activity | detection limit dilution (fold) of an HCV genome (Hepatitis C Virus (HCV); 1.0 μM added, FIG. 1, negative control detected up to 30-fold or 100-fold dilution): up to 3-fold or 10-fold | yield of total RNA for each of the samples (injury on the cells) (MT-2C cells): little or no alteration

O=c1[nH]c(=O)n([C@@H]2O[C@H](CO)[C@@H](F)[C@H]2O)cc1F [Synthetic Example 2, 3′-deoxy-5,3′-difluorouridine]
yield of total RNA for each of the samples (injury on the cells) (MT-2C cells): little or no alteration

O=c1ccn([C@H]2O[C@@H](CO)[C@H](F)[C@@H]2O)c(=O)[nH]1 [Synthetic Example 10, 1-(3′-deoxy-3′-fluoro-β-L-ribofuranosyl)uracil]
detection of HCV genome in diluted RT product (Hepatitis C Virus (HCV); 1 μM added): could not be detected, except for one sample diluted to 10-fold | detection of HCV genome in diluted RT product (Hepatitis C Virus (HCV); 10 μM added): could not be detected, except for one sample diluted to 10-fold | yield of total RNA for each of the samples (injury on the cells) (MT-2C cells): little or no alteration

O=c1[nH]c(=O)n([C@H]2O[C@@H](CO)[C@H](F)[C@@H]2O)cc1F [Synthetic Example 11, 1-(3′-deoxy-5,3′-difluoro-β-L-ribofuranosyl)uracil]
detection of HCV genome in diluted RT product (Hepatitis C Virus (HCV); 1 μM added): could not be detected, except for one sample diluted to 10-fold | detection of HCV genome in diluted RT product (Hepatitis C Virus (HCV); 10 μM added): could not be detected, except for one sample diluted to 10-fold | yield of total RNA for each of the samples (injury on the cells) (MT-2C cells): little or no alteration

O=c1ccn([C@@H]2O[C@H](COP(=O)(O)OP(=O)(O)OP(=O)(O)O)[C@@H](F)[C@H]2O)c(=O)[nH]1 [Synthetic Example 12, 3′-deoxy-3′-fluorouridine 5′-triphosphate]
IC50 (HCV RNA polymerase): 0.3 µM

O=c1[nH]c(=O)n([C@@H]2O[C@H](COP(=O)(O)OP(=O)(O)OP(=O)(O)O)[C@@H](F)[C@H]2O)cc1F [Synthetic Example 13, 3′-deoxy-5,3′-difluorouridine 5′-triphosphate]
IC50 (HCV RNA polymerase): 1 µM

O=c1ccn([C@@H]2O[C@H](COP(=O)(O)OP(=O)(O)OP(=O)(O)O)[C@@H](F)[C@H]2O)c(=S)[nH]1 [Synthetic Example 19, 3′-deoxy-3′-fluoro-2-thiouridine 5′-triphosphate]
IC50 (HCV RNA polymerase): 3 µM

O=c1ccn([C@H]2O[C@@H](COP(=O)(O)OP(=O)(O)OP(=O)(O)O)[C@H](F)[C@@H]2O)c(=O)[nH]1 [Synthetic Example 21, 1-(3′-deoxy-3′-fluoro-β-L-ribofuranosyl)uracil 5′-triphosphate]
IC50 (HCV RNA polymerase): 3 µM

O=c1[nH]c(=O)n([C@H]2O[C@@H](COP(=O)(O)OP(=O)(O)OP(=O)(O)O)[C@H](F)[C@@H]2O)cc1F [Synthetic Example 22, 1-(3′-deoxy-5,3′-fluoro-β-L-ribofuranosyl)uracil 5′-triphosphate]
IC50 (HCV RNA polymerase): 10 µM

interferon
efficacy (hepatitis C): not more than 30%
